Values joined by “and” are separate entries in the source; they are usually repeats but may differ in a detail not shown here. Identical values can stand only once. Like-named read-outs stand apart in the source and are kept apart here.
Key:
[1] = system: MCF-7 cells; experiment: MCF-7 cell proliferation assay (MTT reduction); format: cell-based, human; conditions: MCF-7 cells, MTT; for EC50: Homo sapiens, MCF7, hormone-depleted medium, read-out: EC50 (proliferative effect)
Description: MCF-7 cell line which is sensitive to estrogen (ERα^+) was kindly provided by Dr. Sari Tojkander (Department of Veterinary Biosciences, Faculty of Veterinary Medicine, University of Helsinki). Cells were usually grown in T25 or T75 flasks containing DMEM with or without phenol red and supplemented with 7–10% FBS and 4 mM L-glutamine at 37°C in 5% CO2/95% humidified atmosphere. In order to eliminate the disturbing effect of hormones usually present in FBS, cell culture medium supplemented with commercially available charcoal-stripped FBS and 4 mM L-glutamine (SF medium) was used for experiments.
The effect of EEDCs on the proliferation of MCF-7 cells was assessed as previously described by measuring the capacity of the cells in each well to reduce MTT reagent (Van Meeuwen et al. [2007]). Approximately 5000 cells/200 μL of SF medium containing DMEM without phenol red, 5% charcoal-stripped FBS, and 4 mM L-glutamine were seeded per well in a 96-well cell culture plate. On day 2, cells were treated with the SF medium containing test compounds or vehicle. The final concentration of the solvents DMSO and EtOH was lower than 0.1%. On day 5, the SF medium containing test compounds or vehicle were refreshed. On day 8, cells were washed with PBS twice and then incubated with the SF medium containing 1 mg/mL MTT reagent for 1 h. The ability of MCF-7 cells to reduce MTT was measured at the reference wavelength of 595 nm using a microplate reader (Multiskan Ascent, Thermo Fisher Scientific). All the exposures were in triplicate.
The dose-response curves of test samples were plotted against logarithmic-transformed concentrations.

[2] = system: MCF-7 cells; design: method as in Blanquer-Rosselló et al. [2013]; conditions: 0.001–20 μM, ref Blanquer-Rosselló et al. [2013]; cited from earlier work
[3] = system: MCF-7 cells; experiment: LDH cytotoxicity test; conditions: 24 h, up to 10^−4 M
Description: Cytotoxicity was assessed by lactate dehydrogenase (LDH) release. For LDH measurement, Pierce LDH Cytotoxicity Assay Kit (Thermo Scientific, Rockford, USA) was used. MCF-7 cells were seeded at 2.8×10^5 in a transparent 96-well plate, and corner cells of the plate were filled with PBS to prevent the edge effect. SF medium containing DMEM without phenol red, 1% charcoal-stripped FBS, and 4 mM L-glutamine were used for this assay. Plates were incubated for 24 h, and then the cells were treated with test compounds at concentrations ranging from 10^−14 to 10^−4 M or vehicle for another 24 h. On day 3, culture supernatant was collected in a separate 96-well plate, and the assay was continued according to the manufacturer’s instructions. Final absorbance was measured with the microplate reader at 490 and 680 nm. […] Vehicle control was 0.1% EtOH or DMSO. All the exposures were in triplicate, and the experiment was carried out twice.

[4] = system: MCF-7 cells; experiment: In vitro micronucleus assay for cytokinesis block; format: cell-based, human; conditions: 24 h; for Micronuclei per 1000 binucleated cells, Replicates: single replicate values
Description: The genotoxicity of EEDCs to MCF-7 cells was assessed by the in vitro micronucleus assay for cytokinesis block. MCF-7 cells were seeded at a density of 5×10^4/well in a 12-well plate in SF medium containing DMEM, 7% charcoal-stripped FBS and 4 mM L-glutamine. These cells were treated with test compounds or the positive control for 24 h. Then, cells were washed twice with PBS, treated with 2 μg/mL cytochalasin B, and incubated for 1.5–2 normal cell cycle lengths (~24 h for MCF-7 cells). Finally, cells were washed with PBS and fixed with 4% paraformaldehyde for 10–15 min (in PBS, pH 6.9). Before staining cells with 5% Giemsa stain for 20 min, plates were washed again with PBS and dried. The frequency of micronuclei per 1000 binucleated cells was counted for each well, and the ratio of micronucleus frequency in treated vs. control cells was defined as fold induction. Cells in mitosis were omitted.

[5] = system: S. cerevisiae BMA64/luc; conditions: values higher than 2 are considered toxic
Description: Yeast bioluminescent assay was performed as previously described (Omoruyi and Pohjanvirta [2018]). Two recombinant yeasts, Saccharomyces cerevisiae BMAEREluc/ERα and Saccharomyces cerevisiae BMA64/luc, were kindly provided by Dr. Johanna Rajasärkkä, Department of Food and Environmental Sciences, Faculty of Agriculture and Forestry, University of Helsinki. In the BMAEREluc/ERα, human ERα is expressed. After estrogen-like chemicals bind to ERα, the dimerized receptor binds to a specific DNA sequence called estrogen response element (ERE), in the promotor region of the luc reporter gene, inducing its expression. In BMA64/luc, the luciferase is expressed constitutively, and this strain can be used for the evaluation of cytotoxicity of test compounds.
Both strains were revived from glycerol stock solution on agar and broth forms of synthetic complete medium supplemented with the required amino acids. After the absence of contamination was confirmed by observing single colonies’ morphology on agar plate, approximately 10 μL of cultured yeasts in broth was transferred to 4 mL of synthetic defined (SD) medium supplemented with the required amino acids. The culture was incubated at 30°C on a shaker incubator (200 rpm). After 24-h incubation, the culture was diluted with SD broth to reach the optimal density (OD600) of 0.4 CFU/mL. Subsequently, the culture was incubated in the same incubation condition until the OD600 reached 0.6–0.7 CFU/mL.
Next, 90 μL of cultured yeasts containing 1:20 luciferin solution (0.042 g luciferin dissolved in 9.75 mL of 0.2 M trisodium citrate, and 5.525 mL of 0.2 M citrate, pH 5) was pipetted into every well of a white 96-well flat-bottom plate, and 10 μL of test compounds in a defined concentration range (diluted in 5% EtOH) were added. The plate was incubated at 30°C for approximately 2.5 h, and was then shaken briefly. The luminescence measurement was performed with Luminoskan Ascent microplate luminometer (Thermo Labsystems) using the recommended settings as follows: 1000 ms integration time, single measurement mode, shaking at 60 rpm for 5 s prior to measurement.
Each concentration of test compounds and controls in the assay was tested in triplicate, and the experiment was performed twice.
* The Correction Factor is the luminescence of the strain BMA64/luc with blank solvent divided by the luminescence of the control strain with the sample. Values higher than 2 are considered toxic (Leskinen et al. 2005).
* The Correction Factor is the luminescence of the strain BMA64/luc with blank solvent divided by the luminescence of the control strain with the sample. Values higher than 2 are considered toxic (Leskinen et al. 2005). […] Each experiment was performed in triplicate.

[6] = system: MCF-7 cells; design: method as in Lei et al. [2017]; conditions: 10^−4 M, 24-h incubation, LDH leakage; ref Lei et al. [2017]; cited from earlier work

For CC(C)=CCc1c(O)cc(O)c2c1O[C@H](c1ccc(O)cc1)CC2=O [8-PN, 8-prenylnaringenine], the EC50 [1] is listed as 4.98 nM, the “efficacy (maximum induction of cell growth) compared with 17β-estradiol” value [1] is listed as “about half” and the “mitochondrial function and ROS production” value [2] is listed as “improved mitochondrial function and decreased ROS production”. For the same compound, the “maximum level of cytotoxicity (LDH release)” value [3] was “less than 2.5%”, the “Micronuclei per 1000 binucleated cells, Average” value ([4]; 10^−7 M) was 22.33 per 1000 binucleated cells and the “Micronuclei per 1000 binucleated cells, Replicates” value ([4]; 10^−7 M) was 24 per 1000 binucleated cells and 20 per 1000 binucleated cells and 23 per 1000 binucleated cells. For the same compound, the “Micronuclei per 1000 binucleated cells, Average” value ([4]; 10^−8 M) was 18.67 per 1000 binucleated cells, the “Micronuclei per 1000 binucleated cells, Replicates” value ([4]; 10^−8 M) was 16 per 1000 binucleated cells and 19 per 1000 binucleated cells and 21 per 1000 binucleated cells and the “Correction Factor” value ([5]; 5% DMSO, 10^−4 M) was 3.27±0.64. The “Correction Factor” value ([5]; 5% DMSO, 10^−6 M) was 3.31±0.92, the “Correction Factor” value ([5]; 5% DMSO, 10^−8 M) was 2.62±0.30 and the “Correction Factor” value ([5]; 5% DMSO, 10^−10 M) was 2.02±0.15. For the same compound, the “Correction Factor” value ([5]; 5% DMSO, 10^−12 M) was 2.32±0.56, the “Correction Factor” value ([5]; 5% DMSO, 10^−14 M) was 2.09±0.35 and the “Correction Factor” value ([5]; 5% ethanol, 10^−4 M) was 1.05±0.21. The “Correction Factor” value ([5]; 5% ethanol, 10^−6 M) was 0.94±0.14, the “Correction Factor” value ([5]; 5% ethanol, 10^−8 M) was 0.97±0.04 and the “Correction Factor” value ([5]; 5% ethanol, 10^−10 M) was 1.03±0.16. For the same compound, the “Correction Factor” value ([5]; 5% ethanol, 10^−12 M) was 0.92±0.14 and the “Correction Factor” value ([5]; 5% ethanol, 10^−14 M) was 0.98±0.12.

In the case of C[C@]12CC[C@@H]3c4ccc(O)cc4CC[C@H]3[C@@H]1CC[C@@H]2O [17β-estradiol], the EC50 [1] is reported as 0.21 nM, the “maximum level of cytotoxicity (LDH release)” value [3] is reported as “less than 2.5%” and the “Micronuclei per 1000 binucleated cells, Average” value ([4]; 10^−7 M) is reported as 13.33 per 1000 binucleated cells. For the same compound, the “Micronuclei per 1000 binucleated cells, Replicates” value ([4]; 10^−7 M) was 10 per 1000 binucleated cells and 13 per 1000 binucleated cells and 17 per 1000 binucleated cells, the “Micronuclei per 1000 binucleated cells, Average” value ([4]; 10^−8 M) was 13 per 1000 binucleated cells and the “Micronuclei per 1000 binucleated cells, Replicates” value ([4]; 10^−8 M) was 12 per 1000 binucleated cells and 14 per 1000 binucleated cells and 13 per 1000 binucleated cells. For the same compound, the “Correction Factor” value ([5]; 5% DMSO, 10^−4 M) was 3.23±0.53, the “Correction Factor” value ([5]; 5% DMSO, 10^−6 M) was 3.42±0.81 and the “Correction Factor” value ([5]; 5% DMSO, 10^−8 M) was 2.98±0.42. The “Correction Factor” value ([5]; 5% DMSO, 10^−10 M) was 3.11±0.47, the “Correction Factor” value ([5]; 5% DMSO, 10^−12 M) was 2.60±0.69 and the “Correction Factor” value ([5]; 5% DMSO, 10^−14 M) was 2.59±0.23. The “Correction Factor” value ([5]; 5% ethanol, 10^−4 M) was 1.12±0.12, the “Correction Factor” value ([5]; 5% ethanol, 10^−6 M) was 1.08±0.05 and the “Correction Factor” value ([5]; 5% ethanol, 10^−8 M) was 1.11±0.06.

For CC(C)(c1ccc(O)cc1)c1ccc(O)cc1 [BPA, bisphenol A], the “increase of MCF-7-cell mortality” value [6] is given as “more than 80%”.
